Read-outs that look alike come from different tables or passages of the source.
What was measured:
hNSC = assay: MMP assay in human neural stem cells (hNSC); type: cell-based; conditions: Homo sapiens, Neural stem cell; 1 h treatment; fresh re-sourced stocks; mean±SD of three experiments; read-out: hNSC IC50 (MMP)
HepG2 cells [1] = assay: ROS-Glo hydrogen peroxide (ROS) assay; type: cell-based, human; conditions: Homo sapiens, HepG2; 2 h treatment; mean±SD of three experiments; read-out: ROS (HepG2) EC50
HepG2 cells [2] = assay: Intracellular ATP content (cell viability) assay; type: cell-based, human; conditions: 40 h treatment, mean±SD of three experiments; for IC50: Homo sapiens, HepG2
[3] = system: p53 (p53-bla HCT-116 cells); assay: p53 β-lactamase reporter gene assay; type: cell-based, human; conditions: 16 h incubation, mean±SD of three experiments
[4] = system: Nrf2/ARE (ARE-bla HepG2 cells); assay: ARE β-lactamase reporter gene assay; type: cell-based, human; conditions: 16 h incubation, mean±SD of three experiments; for EC50: Homo sapiens, HepG2, read-out: ARE (HepG2) EC50
[5] = system: isolated rat liver mitochondria; assay: Oxygen consumption, Clark-type oxygen electrode; type: biochemical; conditions: for I-ADP, % of control (O2 consumption rate): glutamate/malate driven state 3 respiration; for I-ADP, % of control (O2 consumption rate) / I-sub, % of control (O2 consumption rate) / II-ADP, % of control (O2 consumption rate) / II-sub, % of control (O2 consumption rate): isolated rat liver mitochondria; for I-sub, % of control (O2 consumption rate): glutamate/malate driven state 4 respiration; for II-ADP, % of control (O2 consumption rate): succinate-driven state 3 respiration; for II-sub, % of control (O2 consumption rate): succinate-driven state 4 respiration; for Potential Mechanism: mitochondrial respiration in isolated rat liver mitochondria, Clark type oxygen electrode, over tested concentrations
[6] = system: HeLa cells expressing YFP-Parkin; assay: Parkin translocation assay; type: cell-based, human; conditions: HeLa cells stably expressing YFP-Parkin; treated for 2 h
HepG2 cells [7] = conditions: cited from earlier work; for IC50: read-out: MMP assays IC50 (µM) qHTS-HepG2
HepG2 cells [8] = assay: cells; conditions: Homo sapiens; for Emax: HepG2, read-out: MMP assays efficacy (%) HepG2
[9] = system: Caenorhabditis elegans strain PE255; assay: In vivo C. elegans ATP status assay; conditions: for minimal effective concentration: Caenorhabditis elegans, read-out: LEC LUM: lowest effect concentration for luminescence, a measure of nematode ATP content
rat primary hepatocytes = assay: MMP assay in rat primary hepatocytes; conditions: for Rat hepatocytes (efficacy) (MMP): % of positive control, mean±SD of three experiments; for IC50: Rattus norvegicus, Hepatocyte; for MMP assays efficacy (%) Rat Hepatocytes: mean ± SD of three experiments
[10] = system: Caenorhabditis elegans (Bristol N2); assay: C. elegans larval development and growth assay
[11] = HepG2, 1 h, read-out: HepG2 IC50 Galactose (MMP)
[12] = HepG2, 1 h, read-out: HepG2 IC50 Glucose (MMP)
[13] = HepG2, read-out: MMP assays IC50 (µM) HepG2
[14] = 1 h, read-out: Rat hepatocytes IC50 (MMP)
[15] = read-out: MMP assays IC50 (µM) Rat Hepatocytes
[16] = 5 mM glucose, read-out: ATP (HepG2, glucose) IC50
[17] = 10 mM galactose, read-out: ATP (HepG2, galactose) IC50

Nc1ccc2c(c1)C(=O)c1ccccc1C2=O [2-Aminoanthraquinone]
IC50 (hNSC): 1.8 ± 0.83 µM
EC50 (HepG2 cells [1]): 4.72 ± 0.8 µM
ATP (HepG2, glucose) IC50 (HepG2 cells [2]; 5 mM glucose): Inactive
ATP (HepG2, galactose) IC50 (HepG2 cells [2]; 10 mM galactose): Inactive
p53 (HCT-116) EC50 [3]: Inactive
EC50 [4]: 3.93 ± 0.89 µM
I-ADP, % of control (O2 consumption rate) ([5]; 100 µM): 101 (53.8) % of control
I-sub, % of control (O2 consumption rate) ([5]; 100 µM): 98 (13.2) % of control
II-ADP, % of control (O2 consumption rate) ([5]; 100 µM): 124 (83.8) % of control
II-sub, % of control (O2 consumption rate) ([5]; 100 µM): 107 (23.2) % of control
Potential Mechanism [5]: Inactive
Parkin recruitment [6]: Inactive
MMP assays efficacy (%) qHTS-HepG2 (HepG2 cells [7]): -85±11%
IC50 (HepG2 cells [7]): 0.51 ± 0.29 µM
IC50 (HepG2 cells [8]; [11]): 8.98 ± 1.62 µM
IC50 (HepG2 cells [8]; [12]): 6.58 ± 0.9 µM
IC50 (HepG2 cells [8]; [13]): 1.26 µM
Emax (HepG2 cells [8]): 85%
LUM: mean difference in luminescence (ATP content) relative to plate controls ([9]; 0.5 µM): 0.5241
LUM: mean difference in luminescence (ATP content) relative to plate controls ([9]; 1 µM): 1.069
LUM: mean difference in luminescence (ATP content) relative to plate controls ([9]; 5 µM): 1.958
LUM: mean difference in luminescence (ATP content) relative to plate controls ([9]; 10 µM): 1.846
LUM: mean difference in luminescence (ATP content) relative to plate controls ([9]; 25 µM): 1.929
LUM: mean difference in luminescence (ATP content) relative to plate controls ([9]; 50 µM): 1.555
LUM: mean difference in luminescence (ATP content) relative to plate controls ([9]; 75 µM): 1.569
LUM: mean difference in luminescence (ATP content) relative to plate controls ([9]; 100 µM): 1.98
LEC (lowest effect concentration), ATP assay ([9]; 24 h exposure): ≤ 10 µM
minimal effective concentration [9]: 0.5 µM
Rat hepatocytes (efficacy) (MMP) (rat primary hepatocytes): −58.3±7.52%
IC50 (rat primary hepatocytes; [14]): 9.63 ± 3.17 µM
IC50 (rat primary hepatocytes; [15]): 3.57 ± 2.61 µM
MMP assays efficacy (%) Rat Hepatocytes (rat primary hepatocytes): -91±30%
EXT: mean difference in nematode size relative to plate controls ([10]; 0.5 µM): 0.000738
EXT: mean difference in nematode size relative to plate controls ([10]; 1 µM): 0.7865
EXT: mean difference in nematode size relative to plate controls ([10]; 5 µM): 0.06113
EXT: mean difference in nematode size relative to plate controls ([10]; 10 µM): 0.09116
EXT: mean difference in nematode size relative to plate controls ([10]; 25 µM): 0.03934
EXT: mean difference in nematode size relative to plate controls ([10]; 50 µM): 0.4385
EXT: mean difference in nematode size relative to plate controls ([10]; 75 µM): 0.2071
EXT: mean difference in nematode size relative to plate controls ([10]; 100 µM): 0.2541
minimal effective concentration ([10]; Caenorhabditis elegans, read-out: LEC EXT: lowest effect concentration for extinction, a measure of nematode size): 100 µM

Cc1cc(O)c2c(c1)C(=O)c1cc(O)cc(O)c1C2=O [Emodin]
IC50 (hNSC): 1.09 ± 0.56 µM
EC50 (HepG2 cells [1]): 5.24 ± 1.72 µM
IC50 (HepG2 cells [2]; [16]): 43 ± 4.95 µM
IC50 (HepG2 cells [2]; [17]): 39.7 ± 2.69 µM
EC50 ([3]; Homo sapiens): 14.9 ± 6.5 µM
EC50 [4]: 10.5 ± 1.45 µM
I-ADP, % of control (O2 consumption rate) ([5]; 0.16 µM): 93 (34.5) % of control
I-sub, % of control (O2 consumption rate) ([5]; 0.16 µM): 102 (11.0) % of control
II-ADP, % of control (O2 consumption rate) ([5]; 0.16 µM): 94 (59.1) % of control
II-sub, % of control (O2 consumption rate) ([5]; 0.16 µM): 110 (20.4) % of control
I-ADP, % of control (O2 consumption rate) ([5]; 0.8 µM): 98 (36.6) % of control
I-sub, % of control (O2 consumption rate) ([5]; 0.8 µM): 120 (13.0) % of control
II-ADP, % of control (O2 consumption rate) ([5]; 0.8 µM): 94 (59.4) % of control
II-sub, % of control (O2 consumption rate) ([5]; 0.8 µM): 114 (21.1) % of control
I-ADP, % of control (O2 consumption rate) ([5]; 4 µM): 110 (41.0) % of control
I-sub, % of control (O2 consumption rate) ([5]; 4 µM): 232 (25.1) % of control
II-ADP, % of control (O2 consumption rate) ([5]; 4 µM): 84 (53.2) % of control
II-sub, % of control (O2 consumption rate) ([5]; 4 µM): 144 (26.8) % of control
I-ADP, % of control (O2 consumption rate) ([5]; 20 µM): 144 (53.6) % of control
I-sub, % of control (O2 consumption rate) ([5]; 20 µM): 540 (58.3) % of control
II-ADP, % of control (O2 consumption rate) ([5]; 20 µM): 81 (51.3) % of control
II-sub, % of control (O2 consumption rate) ([5]; 20 µM): 198 (36.7) % of control
I-ADP, % of control (O2 consumption rate) ([5]; 100 µM): 59 (30.1) % of control
I-sub, % of control (O2 consumption rate) ([5]; 100 µM): 165 (35.4) % of control
II-ADP, % of control (O2 consumption rate) ([5]; 100 µM): 33 (19.6) % of control
II-sub, % of control (O2 consumption rate) ([5]; 100 µM): 67 (23.4) % of control
Potential Mechanism [5]: Uncoupler at low concentrations (4-20 µM), and Uncoupler + inhibitor at high concentrations (100 µM)
Parkin recruitment [6]: Active
MMP assays efficacy (%) qHTS-HepG2 (HepG2 cells [7]): -97±5%
IC50 (HepG2 cells [7]): 1.33 ± 0.78 µM
IC50 (HepG2 cells [8]; [11]): 8 ± 1.44 µM
IC50 (HepG2 cells [8]; [12]): 6.14 ± 1.29 µM
IC50 (HepG2 cells [8]; [13]): 2.51 µM
Emax (HepG2 cells [8]): 104%
LUM: mean difference in luminescence (ATP content) relative to plate controls ([9]; 0.5 µM): 0.08724
LUM: mean difference in luminescence (ATP content) relative to plate controls ([9]; 1 µM): 0.09663
LUM: mean difference in luminescence (ATP content) relative to plate controls ([9]; 5 µM): 0.2419
LUM: mean difference in luminescence (ATP content) relative to plate controls ([9]; 10 µM): 0.4641
LUM: mean difference in luminescence (ATP content) relative to plate controls ([9]; 25 µM): 0.5201
LUM: mean difference in luminescence (ATP content) relative to plate controls ([9]; 50 µM): 0.576
LUM: mean difference in luminescence (ATP content) relative to plate controls ([9]; 75 µM): 0.5532
LUM: mean difference in luminescence (ATP content) relative to plate controls ([9]; 100 µM): 0.7699
effect on ATP content (in words) ([9]; 0.5–100μM, 24 h exposure): statistically significant decreases in ATP content
minimal effective concentration [9]: 25 µM
Rat hepatocytes (efficacy) (MMP) (rat primary hepatocytes): −106±9.55%
IC50 (rat primary hepatocytes; [14]): 15.8 ± 1.07 µM
IC50 (rat primary hepatocytes; [15]): 6.28 ± 4.57 µM
MMP assays efficacy (%) Rat Hepatocytes (rat primary hepatocytes): -101±17%
EXT: mean difference in nematode size relative to plate controls ([10]; 0.5 µM): 0.07129
EXT: mean difference in nematode size relative to plate controls ([10]; 1 µM): 0.003832
EXT: mean difference in nematode size relative to plate controls ([10]; 5 µM): -0.0304
EXT: mean difference in nematode size relative to plate controls ([10]; 10 µM): 0.01596
EXT: mean difference in nematode size relative to plate controls ([10]; 25 µM): 0.07038
EXT: mean difference in nematode size relative to plate controls ([10]; 50 µM): 0.04376
EXT: mean difference in nematode size relative to plate controls ([10]; 100 µM): -0.01346
effect on larval growth (in words) ([10]; 0.5–100μM, 48 h exposure): did not affect growth

Cc1cc(Cc2cc(C)cc(C(C)(C)C)c2O)c(O)c(C(C)(C)C)c1 [2,2′-Methylenebis(4-methyl-6-tert-butylphenol)]
IC50 (hNSC): 0.88 ± 0.25 µM
EC50 (HepG2 cells [1]): 31.4 ± 10.1 µM
IC50 (HepG2 cells [2]; [16]): 34.1 ± 3.93 µM
IC50 (HepG2 cells [2]; [17]): 34 µM
p53 (HCT-116) EC50 [3]: Inactive
ARE (HepG2) EC50 [4]: Inactive
Parkin recruitment [6]: Inactive
IC50 (HepG2 cells [8]; [11]): 6.6 ± 1.12 µM
IC50 (HepG2 cells [8]; [12]): 5.67 ± 1.02 µM
Rat hepatocytes (efficacy) (MMP) (rat primary hepatocytes): −121±16.7%
IC50 (rat primary hepatocytes; [14]): 6.89 ± 1.44 µM
LEC (lowest effect concentration), larval growth assay ([10]; 48 h exposure): ≤ 10 µM

Source: paper PMC6112376, “Comprehensive Analyses and Prioritization of Tox21 10K Chemicals Affecting Mitochondrial Function by in-Depth Mechanistic Studies” (Environmental Health Perspectives, 2018)
